Experiment: Exposure of DTE- or DTT-based dimers to glutathione, release of dimer phosphodiester
Format: physicochemical
Protocol: The half life of prodrug-dimer 5-2 was dependent on the character and excess of the reducing reagent (500:1/Prodrug:GSH), in this instance approximately 4 hours. The kinetics of the release was also dependent on pH and 1M TRIS hydrochloride buffers of pH values varied between 5.0 and 7.8 were used.

half-life (1M TRIS hydrochloride buffer with glutathione (GSH), pH 7.3, 500:1/Prodrug:GSH, pH 7.30, 1M TRIS hydrochloride buffer): ~4 h
release at acidic conditions (buffers of pH between 5.0 and 7.8): considerably slower
Compound: C#CCO[C@@H]1CSSC[C@H]1OP(=O)(OC[C@H]1O[C@@H](n2ccc(=O)[nH]c2=O)[C@H](OC)[C@@H]1OC(=O)CCC(C)=O)O[C@H]1[C@@H](OC)[C@H](n2ccc(=O)[nH]c2=O)O[C@@H]1COC(c1ccccc1)(c1ccc(OC)cc1)c1ccc(OC)cc1 (stereo partly drawn) [Compound 5-2, (2R,3R,4R,5R)-2-{[({[(2R,3R,4R,5R)-2-{[bis(4-methoxyphenyl)(phenyl)methoxy]methyl}-5-(2,4-dioxo-3,4-dihydropyrimidin-1(2H)-yl)-4-methoxytetrahydrofuran-3-yl]oxy}{[(4S,5S)-5-(prop-2-yn-1-yloxy)-1,2-dithian-4-yl]oxy}phosphoryl)oxy]methyl}-5-(2,4-dioxo-3,4-dihydropyrimidin-1(2H)-yl)-4-methoxytetrahydrofuran-3-yl 4-oxopentanoate]

From patent US9884886B2, “Disulfide masked prodrug compositions and methods” (Merck Sharp & Dohme Corp., priority 2012, dated 2018)
